Active and inactive are the calls of the source. The calls are words filed in the database; no cut-off is given here.
Experiments:
[1] = target: T1, Myeloblastin (Mus musculus) (UniProt Q61096); assay: In vivo inhibition of proteinase 3 in C57BL/6 mouse assessed as reduction in proteinase 3 activity in bone marrow at 30 mg/kg, po administered once daily for 6 days by fluorescence based microplate reader relative to control; type: functional, organism-based; details: time 6.0 day
T1 sequence (whole entry): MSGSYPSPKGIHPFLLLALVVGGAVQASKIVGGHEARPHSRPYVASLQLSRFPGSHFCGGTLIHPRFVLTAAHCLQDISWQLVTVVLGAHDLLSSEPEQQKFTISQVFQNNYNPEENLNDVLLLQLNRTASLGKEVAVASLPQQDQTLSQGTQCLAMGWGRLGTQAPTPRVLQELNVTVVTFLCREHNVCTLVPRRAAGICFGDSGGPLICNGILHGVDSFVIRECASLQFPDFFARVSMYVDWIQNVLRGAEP

Mus musculus [2] = assay: Anti-inflammatory activity in DSS-induced ulcerative colitis male C57BL/6 mouse model assessed as reduction in proteinase 3 level in serum at 15 to 30 mg/kg administered via gavage for 10 days; type: functional, organism-based; details: dose 15-30 mg/kg, time 10.0 day
[3] = Half life in male Sprague-Dawley rat at 2 mg/kg, iv measured at 5 to 1440 mins by LC-MS/MS analysis; type: ADME, organism-based; details: in vivo, time 5-1440 min
Mus musculus [4] = assay: Anti-inflammatory activity in DSS-induced ulcerative colitis male C57BL/6 mouse model assessed as reduction in TNF-alpha expression in colon administered via gavage for 10 days by ELISA; type: functional, organism-based; details: dose 15-60 mg/kg, time 10.0 day
[5] = target: T1, Myeloblastin (Mus musculus); assay: In vivo inhibition of proteinase 3 in C57BL/6 mouse assessed as reduction in proteinase 3 activity in bone marrow administered orally once daily for 6 days by fluorescence based microplate reader; type: functional, organism-based; details: dose 5-30 mg/kg, route po, time 6.0 day
[6] = Acute toxicity in ICR mouse assessed as change in white blood cell count in bone marrow at 1500 mg/kg, po administered daily for 7 days; type: organism-based; details: in vivo, 168 h, time 7 day
[7] = MRT in male Sprague-Dawley rat at 2 mg/kg, iv measured at 5 to 1440 mins by LC-MS/MS analysis; type: ADME, organism-based; details: in vivo, time 5-1440 min
RAW264.7 [8] = assay: Anti-inflammatory activity in LPS-stimulated mouse RAW264.7 cells assessed as reduction in IL-1 beta production incubated for 24 hrs by ELISA; type: functional, cell-based; details: dose 0.62-5 µM
Mus musculus [9] = assay: Anti-inflammatory activity in DSS-induced ulcerative colitis male C57BL/6 mouse model assessed as reduction in neutrophil elastase level in colon at 15 to 30 mg/kg administered via gavage for 10 days; type: functional, organism-based; details: dose 15-30 mg/kg, time 10.0 day
[10] = target: T2, Neutrophil elastase (Mus musculus) (UniProt Q3UP87); assay: Induction of neutrophil elastase degradation in C57BL/6 mouse bone marrow cells assessed as residual activity at 10 uM incubated for 48 hrs by Western blot analysis relative to control; type: cell-based; details: Bone marrow cell
T2 sequence (whole entry): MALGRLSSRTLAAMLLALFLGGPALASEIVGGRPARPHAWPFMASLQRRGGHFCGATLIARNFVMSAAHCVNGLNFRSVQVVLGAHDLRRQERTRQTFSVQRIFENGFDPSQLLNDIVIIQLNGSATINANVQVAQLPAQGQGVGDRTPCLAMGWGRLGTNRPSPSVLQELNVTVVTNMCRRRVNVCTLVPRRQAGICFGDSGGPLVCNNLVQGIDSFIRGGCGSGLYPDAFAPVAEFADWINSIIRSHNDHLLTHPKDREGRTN

[11] = target: T3, Cathepsin G (Mus musculus) (UniProt P28293); assay: Induction of Cathepsin G degradation in C57BL/6 mouse bone marrow cells assessed as residual activity at 10 uM incubated for 48 hrs by Western blot analysis relative to control; type: cell-based; details: Bone marrow cell
T3 sequence (whole entry): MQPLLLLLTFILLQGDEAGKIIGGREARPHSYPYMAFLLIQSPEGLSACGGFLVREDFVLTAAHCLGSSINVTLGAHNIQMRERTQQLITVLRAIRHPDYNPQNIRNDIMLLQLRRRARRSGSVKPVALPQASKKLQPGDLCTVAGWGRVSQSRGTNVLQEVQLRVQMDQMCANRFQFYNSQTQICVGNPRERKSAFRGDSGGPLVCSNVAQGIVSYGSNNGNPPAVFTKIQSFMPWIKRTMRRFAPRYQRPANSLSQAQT

[12] = target: T1, Myeloblastin (Mus musculus); assay: Induction of proteinase 3 degradation in C57BL/6 mouse bone marrow cells assessed as remaining activity at 10 uM incubated for 12 hrs by Western blot analysis relative to control; type: cell-based; details: Bone marrow cell
Dipeptidyl peptidase 1 [13] = target: T4, Dipeptidyl peptidase 1 (Homo sapiens, UniProt P53634); assay: Induction of thermal stabilization of Cathepsin C in human U-937 cell incubated for 1 hrs at 37 to 65 degreeC by CETSA based Western blot analysis; details: dose 10-20 µM
T4 sequence (P53634 25-134 limits assumed): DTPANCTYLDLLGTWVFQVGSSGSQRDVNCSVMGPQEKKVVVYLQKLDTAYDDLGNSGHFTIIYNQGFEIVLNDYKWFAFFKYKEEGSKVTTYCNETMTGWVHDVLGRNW
T4 sequence (P53634 231-394 limits assumed): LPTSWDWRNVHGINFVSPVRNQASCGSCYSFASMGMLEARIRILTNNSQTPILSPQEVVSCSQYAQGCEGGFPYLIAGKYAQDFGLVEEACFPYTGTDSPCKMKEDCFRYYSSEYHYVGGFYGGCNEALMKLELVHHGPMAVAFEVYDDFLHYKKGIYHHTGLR
T4 sequence (P53634 395-463 limits assumed): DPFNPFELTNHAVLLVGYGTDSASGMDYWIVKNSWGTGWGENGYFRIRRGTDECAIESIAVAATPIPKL

Mus musculus [14] = assay: Anti-inflammatory activity in DSS-induced ulcerative colitis male C57BL/6 mouse model assessed as reduction in IL-1 beta expression in serum administered via gavage for 10 days by ELISA; type: functional, organism-based; details: dose 15-60 mg/kg, time 10.0 day
[15] = target: T1, Myeloblastin (Mus musculus); assay: Induction of proteinase 3 degradation in C57BL/6 mouse bone marrow cells at 10 uM incubated for 24 hrs by Western blot analysis; type: cell-based; details: Bone marrow cell
Mus musculus [16] = assay: Anti-inflammatory activity in DSS-induced ulcerative colitis male C57BL/6 mouse model assessed as reduction in Cathepsin C level in colon at 60 mg/kg administered via gavage for 10 days; type: functional; design: scale not given: the % may be the effect or the level left; details: time 10 day
[17] = target: T1, Myeloblastin (Mus musculus); assay: In vivo inhibition of proteinase 3 in C57BL/6 mouse assessed as reduction in proteinase 3 activity in blood administered orally once daily for 6 days by fluorescence based microplate reader; type: functional, organism-based; details: dose 5-30 mg/kg, route po, time 6.0 day
Dipeptidyl peptidase 1 [18] = target: T4, Dipeptidyl peptidase 1; assay: Inhibition of Cathepsin C in human U-937 cells using H-Gly-Arg-AMC as substrate at 10 uM incubated for 5 days by fluorescence based microplate reader analysis relative to control; type: cell-based; details: time 5.0 day
[19] = target: T5, Neutrophil elastase (Homo sapiens) (UniProt P08246); assay: Inhibition of neutrophil elastase in human U-937 cells using N-MeSuc-Ala-Pro-Val-pNA as substrate at 10 uM incubated for 5 days by […] based microplate reader analysis relative to control; type: cell-based; details: time 5.0 day
T5 sequence (whole entry): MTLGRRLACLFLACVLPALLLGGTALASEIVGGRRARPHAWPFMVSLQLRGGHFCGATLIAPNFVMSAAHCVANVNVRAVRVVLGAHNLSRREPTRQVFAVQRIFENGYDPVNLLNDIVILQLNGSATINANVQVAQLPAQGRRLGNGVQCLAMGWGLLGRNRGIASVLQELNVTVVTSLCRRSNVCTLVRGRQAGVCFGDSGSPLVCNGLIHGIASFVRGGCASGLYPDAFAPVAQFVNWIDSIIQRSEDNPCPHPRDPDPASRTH

Mus musculus [20] = assay: Anti-inflammatory activity in DSS-induced ulcerative colitis male C57BL/6 mouse model assessed as reduction in inflammatory epithelial destruction in colon at 60 mg/kg administered via gavage for 10 days by H and E staining based analysis; type: functional, organism-based; details: time 10.0 day
Mus musculus [21] = assay: Anti-inflammatory activity in DSS-induced ulcerative colitis male C57BL/6 mouse model assessed as reduction in GM-CSF expression in colon administered via gavage for 10 days by ELISA; type: functional, organism-based; details: dose 15-60 mg/kg, time 10.0 day
RAW264.7 [22] = assay: Anti-inflammatory activity in mouse RAW264.7 cells assessed as inhibition of LPS-induced NO production preincubated for 1 hr followed by LPS addition and measured after 24 hrs by Griess reagent based assay; type: functional, cell-based

SMILES: O=C1Nc2c(cccc2-c2ccc(NC3CCOCC3)cc2)/C1=C/c1ccnc2ccccc12
- inhibition [1]: 58.6%
- Activity (Mus musculus [2]): inactive
- t1/2 [3]: 2.26 h
- Activity (Mus musculus [4]): Active
- inhibition [5]: Dose-dependent-effect
- Activity [6]: Non-toxic
- MRT [7]: 10.48 h
- Activity (RAW264.7 [8]): Dose-dependent-effect
- Activity (Mus musculus [9]): inactive
- Activity [10]: 6.65%
- Activity [11]: 17.3%
- Activity [12]: 75%
- Activity (Dipeptidyl peptidase 1 [13]): Dose-dependent-effect; Significant Thermal Stability Observed
- Activity (Mus musculus [14]): Dose-dependent-effect; Significant Reduction Observed In High Dose Group
- Activity [15]: Active
- Activity (Mus musculus [16]): 45%
- inhibition [17]: Dose-dependent-effect
- inhibition (Dipeptidyl peptidase 1 [18]): 14.9%
- inhibition [19]: 24.5%
- Activity (Mus musculus [20]): Active
- Activity (Mus musculus [21]): Dose-dependent-effect; Significant Reduction Observed In High Dose Group
- IC50 (RAW264.7 [22]): 5.5 µM

From ChEMBL document CHEMBL6092168, “Identification of novel indolinone derivatives as CTSC inhibitors to treat inflammatory bowel disease by modulating inflammatory factors” (Eur J Med Chem, 2024)
